Test results: patent publication US9790469B2, “Established human brown adipocyte line and method for differentiation from an hMADS cell line” (CENTRE NATIONAL DE LA RECHERCHE SCIENTIFIQUE (CNRS), priority 2008, dated 2017)

Tests used:
[1] = test system: hMADS-2 cells differentiated into white adipocytes; experiment: Induction of a brown phenotype in hMADS-2 cells previously differentiated into white adipocytes; format: cell-based, human; conditions: for expression of the UCP1 protein: exposure between days 14 and 16 with specific PPAR ligands; for UCP1 gene expression: replacement of rosiglitazone, 10 μM, results not shown
Description: Initially hMADS-2 cells were differentiated into white adipocytes with 100 nM rosiglitazone present between days 3 and 9. Once eliminated, the ligand is added or not added on day 14 and during the following days at the indicated […] concentrations.
The results are expressed as stimulation factor by taking as 1 the values obtained on day 16 after exposure to 100 nM rosiglitazone between days 3 and 9; the values represent the mean±SD of 2 independent experiments carried out with various series of cells.
(§1) Expression of the genes of interest was normalized compared with the one of the TBP gene and was quantified using the ΔCt comparative method. The sequences of oligonucleotide primers, obtained using the Primer Express Software (Perkin Elmer Life Sciences), are described in Table 1 below.
The primary antibodies obtained from the rabbit, anti-human UCP1 and anti-TBP, are products from Santa Cruz Biotechnology (Santa Cruz, Calif., USA) and the secondary antibodies (conjugated with horseradish peroxidase) are products from Promega (Charbonnières, France). The “Enhanced Chemiluminescence” system (Millipore, Saint-Quentin-Yvelines, France) was used for detection.

[2] = test system: human brown adipocytes immortalized by transgenesis and expressing β3-adrenergic receptors; conditions: Zilberfarb 1997; Jockers 1998; cited from earlier work
hMADS-2 cells [3] = experiment: Stimulation of UCP1 expression by β-adrenergic agonists in hMADS-2 cells differentiated into brown adipocytes; format: cell-based, human; conditions: stimulation for 6 h at 10-100 nM; cells with 100 nM rosiglitazone days 3 to 16
Description: A) adipocytic differentiation of hMADS-2 cells was carried out in the presence of 100 nM rosiglitazone on the days indicated and mRNA levels were determined on day 17 by quantitative RT-PCR. (B, C) differentiation was obtained in the presence of 100 nM rosiglitazone between days 3 and 16, in the absence or the presence during the 6 last hours of β-adrenergic agonists at the indicated concentrations. The results represent the mean±SD of 3 (A) and 2 (B) independent experiments carried out with various series of cells; they are expressed by taking as 100% the values obtained either during treatment between days 3 and 9 (A) or in the absence of β-adrenergic agonists (B, C).
(§2) RNA purification and analysis: RNA extraction, the use of reverse transcriptase and determination of mRNA levels by real-time quantitative RT-PCR have been described (Zaragosi, L. E et al., Stem Cells, 2006. 24(11): p. 2412-9; Elabd, C, et al., Biochem Biophys Res Commun, 2007. 361(2): p. 342-8; Bezy, O., et al., J Biol Chem, 2005. 280(12): p. 11432-8). Expression of the genes of interest was normalized compared with the one of the TBP gene and was quantified using the ΔCt comparative method. […]
Immunoblot analysis: Total cellular lysates are analyzed by immunoblot as previously described (Bezy, O., et al., J Biol Chem, 2005. 280(12): p. 11432-8). […]

hMADS-2 cells [4] = experiment: Oxygen consumption and respiratory uncoupling of hMADS-2 cells (respirometer); format: cell-based, human
Description: On day 20, oxygen consumption (A), decoupling of oxidative phosphorylation (B) and stimulation of oxygen consumption by isoprenaline (C) were measured according to the protocol described in “Materials and Methods”. […] Determination of oxygen consumption: Oxygen consumption was measured using two-chamber injection respirometer equipped with a Peltier thermostat, Clark electrodes and integrated magnetic stirrers (Oroboros, Innsbruck, Austria). Measurements were made at 37° C. with constant stirring in a volume of 2 ml of DMEM/F12 medium (1:1, v/v) containing 10% fetal calf serum. Before each measurement, the medium present in the chambers was equilibrated with air for 30 min, and then the freshly-trypsinized cells were transferred to this medium. […] The respiratory chain was blocked with 1 μg/ml antimycin A. Oxygen consumption was calculated using the DataGraph software (Oroboros Software). Basal respiratory activity corresponds to oxygen consumption sensitive to antimycin A. Respiratory activity was stimulated in the presence of 1 μM isoprenaline added extemporaneously in the injection chamber, with measurements made as described above.

hMADS-2 cells [5] = experiment: Adipocytic differentiation of hMADS-2 cells (Oil Red O lipid staining, GPDH activity, PPARγ mRNA); format: cell-based, human
From the text: as §1

hMADS-2 cells [6] = experiment: Expression of brown adipocyte markers and related genes in hMADS-2 cells (quantitative RT-PCR, immunoblot); format: cell-based, human; conditions: brown phenotype; ratio 1 for the white phenotype (days 3 to 9)
Description: Differentiation of hMADS-2 cells was carried out as described in FIG. 1. On day 16, levels of UCP1 (A), UCP2 (C), CIDEA (D) and CPT1B (E) mRNA were determined by quantitative RT-PCR. The results represent the mean±SD of 3 independent experiments carried out with various series of cells; they are expressed by taking as 100% the value obtained in the presence of 500 nM rosiglitazone. Levels of the UCP1 protein (B) were determined by immunoblotting on 2 different series of cells using TBP as endogenous internal standard.
Adipocytic differentiation of hMADS-2 cells was carried out in the presence of either rosiglitazone at 100 nM (A) or at the indicated concentrations (B). Levels of PRDM16, PGC-1α, PGC-1β and PPARα mRNA were determined by quantitative RT-PCR on day 16 (A) and day 17 (B). […]
Adipocytic differentiation of hMADS-2 cells was carried out in the presence of 100 nM rosiglitazone. On day 16, Bcl-2 and Bax mRNA levels were determined by quantitative RT-PCR. […]
as §2, with “11432-8).” for “11432-8). Expression of the genes of interest was normalized compared with the one of the TBP gene and was quantified using the ΔCt comparative method.”

[7] = 100 nM, days 3 to 20 (brown) versus days 3 to 9 (white)

## Cc1cccc(Nc2cc(Cl)nc(SCC(=O)O)n2)c1C [Wy14643]
[1]
  expression of the UCP1 protein: not inducing the expression of the UCP1 protein

## CC(C)(C)NCC(O)COc1cccc2[nH]c(=O)[nH]c12 (stereo not shown) [CGP12177A]
[2]
  lipolytic activity: only weak lipolytic activity

## CCCCC/C=C\C/C=C\C/C=C\C/C=C\CCCC(=O)O [arachidonic acid]
[1]
  UCP1 gene expression: no effect

## CC/C=C\C/C=C\C/C=C\C/C=C\C/C=C\CCCC(=O)O [eicosapentaenoic acid]
[1]
  UCP1 gene expression: no effect

## CC(C)NCC(O)c1ccc(O)c(O)c1 (stereo not shown) [isoproterenol]
hMADS-2 cells [3]
  expression of UCP1 mRNA and UCP1 protein: significantly increased
hMADS-2 cells [4]; 1 μM, cells with brown phenotype
  stimulation of oxygen consumption: important stimulation

## CCCc1c(OCCCOc2ccc(OCC(=O)O)cc2)ccc(C(C)=O)c1O [L165041]
[1]
  expression of the UCP1 protein: not inducing the expression of the UCP1 protein

## CC/C=C\C/C=C\C/C=C\C/C=C\C/C=C\C/C=C\CCC(=O)O [docosahexaenoic acid]
[1]
  UCP1 gene expression: no effect

## O=C(Nc1ccccc1)c1cc([N+](=O)[O-])ccc1Cl [GW 9662]
[1]; PPARγ antagonist added, cells differentiated beforehand into white adipocytes
  expression of the UCP-1 gene: does not allow expression of the UCP-1 gene
hMADS-2 cells [5]; PPARγ antagonist added to the differentiation medium
  differentiation of hMADS cells into adipocytes: prevents

## CN(CCOc1ccc(CC2SC(=O)NC2=O)cc1)c1ccccn1 (stereo not shown) [rosiglitazone]
hMADS-2 cells [6]
  ratio of Bcl-2 to Bax: 3.7
hMADS-2 cells [4]; [7]
  increase factor of total respiratory activity: 3
  increase factor of uncoupled respiratory activity: 2.5

## C[C@H](Cc1ccc2c(c1)OC(C(=O)[O-])(C(=O)[O-])O2)NC[C@H](O)c1cccc(Cl)c1.[Na+].[Na+] [CL316243]
hMADS-2 cells [3]
  expression of UCP1 mRNA and UCP1 protein: significantly increased

B1: BMP7: Bone Morphogentic Protein 7 (BMP7) (protein, UniProt P18075 293-431, looked up)
Bone morphogenetic protein 7: STGSKQRSQNRSKTPKNQEALRMANVAENSSSDQRQACKKHELYVSFRDLGWQDWIIAPEGYAAYYCEGECAFPLNSYMNATNHAIVQTLVHFINPETVPKPCCAPTQLNAISVLYFDDSSNVILKKYRNMVVRACGCH
[1]; cells differentiated beforehand into white adipocytes
  UCP-1 protein expression: weak increase
hMADS-2 cells [5]; BMP7 alone, in the absence of rosiglitazone
  differentiation of hMADS cells into adipocytes: does not enable their differentiation into adipocytes
